Series [1] relates to carrageenin induced edema. Put plainly: Carrageenin induced edema in the rat paw. The format is in vivo. Particulars: dosage around 1/5 of its LD50. As for the experimental part:
(§1) The antiinflammatory activity was ascertained by means of several testing methods; in one, the ability of the compounds of the invention to reduce the edema induced in the rat paw by injection of carrageenin was evaluated and the test was performed according to the methodology described by C. A. Winter et al. in Proc. Soc. Exptl. Biol. Med. 111, 544, (1962). In another it was investigated the reduction by the test compounds of the weight of the granuloma formed on a cotton pellet implanted subcutaneously in a rat, following the method described by Meier et al. in Experientia 6, 469, (1950).
(§2) Representative experiments have shown that the compounds of Example 11, namely 2,3-dihydro-6-methoxy-N,2-dimethyl-4-benzofuranamine causes a reduction of the carrageenin induced edema of around 70 percent over the controls even when it is administered at an absolutely safe dosage i.e., around 1/5 of its LD50. In the granuloma cotton pellet test the same compound at the same dosage reduces the weight of the granuloma of more than 40 percent again over the controls.

The nature of series [2]: Acute oral toxicity in rats (LD50, Lichtfield and Wilcoxon). As to conditions: rat, in vivo, rats p.o. (table). As for the experimental part: The toxicities were determined according to Lichtfield and Wilcoxon, Journ. Pharm. Expt. Ther., 96, 99, 1949.
Series [3] concerns granuloma formed on a cotton pellet implanted subcutaneously. The series can be described thus: Granuloma cotton pellet test. The format is in vivo. As to conditions: rat; same dosage, around 1/5 of its LD50. As for the experimental part: as §1, §2
The subject of series [4] is adjuvant induced arthritis. The series can be described thus: Adjuvant induced arthritis test in rats. Particulars: for % reduction of the volume of the hind paws over the controls: rats p.o., Dose 200 mg/kg. The format is in vivo. The text has this: However, the most important pharmacological aspect of the compounds of the present invention is that they are effective also in the adjuvant induced arthritis test in rats. Said test is absolutely meaningful in that adjuvant arthritis is one of the best pharmacological parameters with which a pharmacologist can investigate compounds as to their possible antinflammatory activity, owing to the parallelism of effects existing between it and some articulation diseases observed in humans (see Pearson, C. M., Arthritis and allied conditions, page 119, Lea and Febiger Publ., 1967 and Pearson, C. M., J. Chronic Diseases, 16, 863, 1963).
The adjuvant induced arthritis test was performed as described by B. B. Newbould in Brit. Jour. Pharmacol., 21, 127, (1963). The measure of effectiveness of the compounds in this test is given by their ability in reducing the volume of the hind paws of the laboratory animals. […] The obtained results, which are summarized in the following table, were obtained by testing the compounds at a dosage corresponding to 1/5 of their LD50.

With `CNc1cc(OC)cc2c1CC(C)O2` (stereo not drawn) [Example 11, 2,3-dihydro-6-methoxy-N,2-dimethyl-4-benzofuranamine], the “reduction of the carrageenin induced edema over the controls” value in series [1] was “around 70%”. For the same compound, the LD50 (commonly the dose at which mortality reaches 50%) in series [2] was found to be 2800 mg/kg. Also, the “reduction of the weight of the granuloma over the controls” value in series [3] was “more than 40%”. For the same compound, in series [4], the “% reduction of the volume of the hind paws over the controls” value was found to be 36%. In addition, the “activity in the adjuvant induced arthritis test compared with acetylsalicylic acid” value in series [4] (rats, dosage corresponding to 1/5 of their LD50) is listed as “significantly more active”.

With `CC(=O)Oc1ccccc1C(=O)O` [acetylsalicylic acid, reference compound], in series [4], the “% reduction of the volume of the hind paws over the controls” value came out at 25%.

For the origin of these results see patent publication US4143055A, “2,4,6-Trisubstituted-2,3-dihydro-benzofuran derivatives” (Gruppo Lepetit S.p.A., priority 1978, dated 1979).
